Columns and labels:
[1] = Alamar Blue cytotoxicity assay in N2a cells; type: cell-based, mouse; details: mouse, N2a (Neuro2A) neuroblastoma cells, up to 10 μM, 40 h, read-out: cell viability
Description: After confirming these amphiphilic compounds can bind to Aβ species both in vitro and ex vivo, we next investigated whether these compounds could attenuate the toxicity of the Cu–Aβ species, as the Cu^2+ ions were reported to promote the formation of neurotoxic soluble Aβ42 oligomers.[45,46] Firstly, the Alamar Blue cell viability assay was used to measure the cytotoxicity of the compounds at different concentrations ranging from 20 μM to 2 μM in mouse neuroblastoma N2a cells (Fig. 8). […] Considering its high binding affinity to both Aβ fibrils and oligomers, we also further tested its ability to alleviate Cu^2+–Aβ42-induced toxicity. […] The underlying mechanism is unclear, but we propose that these compounds might perform similarly to the toxic oligomers that bind to some cell membrane receptors or insert into the membrane lipids to form porous channels.
Alamar Blue assay was chosen for the cytotoxicity studies.3 Mouse neuroblastoma Neuro2A (N2A) cells were grown with DMEM/10% FBS in a petri dish at 37 °C in a humidified atmosphere with 5% CO2. Then N2A cells were seeded in a 96-well plate (1.0 × 10^4/well). After 24 h incubation, cell media was changed to DMEM/N-2, and N2A cells were incubated for another 1 h. Then the cells were treated with different concentrations of compounds for 40 h, Alamar Blue solution (10 μL) was added, and the cells were incubated for another 90 min at 37 °C. The fluorescence intensity of each well was measured at 590 nm (excitation wavelength = 560 nm).
For the Cu2+-Aβ-induced toxicity studies, cells were treated monomeric Aβ42, Cu2+, monomeric Aβ42 + Cu2+, and monomeric Aβ42 + Cu2+ + compounds, monomeric Aβ42 + Cu2+ + copper chelators (Me2HTACN or Me3TACN), respectively. After 40 h incubation, Alamar Blue solution (10 μL) was added, and the cells were incubated for another 90 min at 37 °C. The fluorescence intensity of each well was measured at 590 nm (excitation wavelength = 560 nm). […]

SH-SY5Y cells = test: Cell toxicity studies in SH-SY5Y cells; type: cell-based, human; details: 10 µM
Source text: Encouraged by the ability of the developed amphiphilic compounds to attenuate the neurotoxicity of Cu–Aβ species, we sought out to study the possible molecular mechanisms for this beneficial effect. The Aβ oligomers were reported to interact with cell membranes in various ways, such as binding to receptors on cell membranes,[49,50] inserting into membranes,[51] or even showing cellular uptake via endocytosis.[52] The abnormal interactions between Aβ oligomers and neuron cells, which could disrupt the neuronal ion homeostasis and neuron cell membrane integrity, might be why Aβ oligomers are highly neurotoxic.[53–55] Moreover, molecules that can disrupt interactions between oligomers and cell membranes are promising candidates for drug development.[56,57] Thus, we proceeded to probe the interactions of the Aβ42 oligomers with SH-SY5Y cellular membranes, in the absence and presence of the compounds, via confocal microscopy. […] Moreover, a lower concentration of Aβ42 (5 μM) or Aβ42–Cu (5 μM) were chosen to avoid significant cell death (Fig. S9b ^†). Before investigating the neuroprotective effect of our compounds, we have also confirmed that Aβ aggregates interact tightly with the cell membranes, as shown via co-staining with a membrane specific dye (Fig. S10 ^†). Subsequently, SH-SY5Y cells were treated with Aβ oligomers or a combination of Aβ oligomers and compounds for 24 h, followed by the immunofluorescence staining with the CF594-labeled anti-Aβ antibody HJ 3.4 (Fig. 10) and nuclei staining, shown in the red and blue channels, respectively. Compared to the untreated group, the Aβ oligomers were found mainly bound to cell membranes. […] To understand this unusual behavior, we posited that the Aβ oligomers would start the fibrilization process when incubated in the cell media. […] Therefore, we proceeded to probe if our compounds could prevent the binding of Aβ fibrils to cell membranes. […] Given these encouraging results, we moved to study if the amphiphilic compounds can further control the interactions between Cu–Aβ species and cell membranes. Firstly, when SH-SY5Y cells were treated with Aβ monomers for 48 h, the aggregated Aβ species interacting with cell membranes were observed (Fig. 11a). […] However, these aggregates are still smaller than the insoluble fibrils (Fig. S11 ^†), indicating they are still soluble oligomeric Aβ species.
11. Cell toxicity studies in SH-SY5Y cells
Figure S9. Cell toxicity studies in SH-SY5Y cells. a) [ZY- 12-MT] = [ZY-15-OMe] = [ZY-15-MT] = [ZY-5-OMe] =
10 µM. b) Average cell numbers in presence of 5 µM Aβ42 monomer, 5 µM (Aβ42 monomer + Cu2+), 5 µM (Aβ42
monomer + Cu2+ + ZY-15-MT) and 5 µM (Aβ42 monomer + Cu2+ + ZY-15-OMe).
(1 picture or pasted object on this page, not shown here)

[2] = target: T1, Aβ plaques in 5xFAD mice brain sections (Homo sapiens, UniProt P05067); test: Fluorescence imaging of 5xFAD mouse brain sections, colocalization with Congo Red; details: 9-month-old 5xFAD brain sections; compound 5 μM, Congo red 2.5 μM
T1 construct: aggregated Aβ species were commonly observed in brain sections from 5xFAD transgenic mice; tissue Jackson Laboratories; host or cells: brain sections of 9-month-old 5xFAD transgenic mice
T1 sequence (P05067 672-713 limits assumed): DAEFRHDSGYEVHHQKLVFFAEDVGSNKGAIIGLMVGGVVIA
Description: In order to confirm that the compounds can also bind to native Aβ species, brain sections collected from 9-month-old 5xFAD transgenic mice have been employed in the fluorescence imaging studies. […] The brain sections were first incubated with our compounds, followed by Congo Red (CR), which is a well-established fluorescent probe that can bind to Aβ plaques.[34] The treated brain sections were then imaged using fluorescence microscope. […] Immunostaining with the CF594-conjugated HJ 3.4 antibody (CF594-HJ3.4) was also performed to confirm that these six compounds can bind to Aβ species specifically in the brain sections (Fig. 5). Moreover, the log D values of the compounds were also measured by octanol-PBS partition assays.[35]
Fig. 4 Fluorescence microscopy images of 5xFAD mice brain sections co-incubated with amphiphilic compounds (top), Congo red (middle) and merged images (bottom, along with the Parson's correlation coefficients R). Concentrations: [amphiphilic compounds] = 5 μM, [Congo red] = 2.5 μM; scale bar: 125 μm. TEXT PRINTED IN THE PICTURE: ZY-5-MT: Merged R= 0.84 | ZY-12-DT: Merged R= 0.52 | ZY-12-OMe: Merged R= 0.77 | ZY-15-OMe: Merged R= 0.77 | ZY-17-DT: Merged R= 0.77 | ZY-17-OMe: Merged R= 0.72 […]
Histological Staining of 5×FAD Mice Brain Sections
5xFAD transgenic mice brain sections were blocked with bovine serum albumin (2% BSA in PBS, pH 7.4, 10 min). Then the mice brain sections were transferred to a PBS solution of the compound and incubated for 1 h. After which, the brain sections were transferred to a PBS solution of Congo Red or antibody HJ 3.4 (Professor David Holtzman, 1 μg/ml) and incubated for another 1 h. Then, the brain sections were treated with BSA again (5 min) followed by washing with PBS (3 × 2 min), DI water (3 × 2 min). Finally, the mice brain sections were mounted with non-fluorescent mounting media, and the images were obtained by using EVOS FL Auto 2. ImageJ Fiji program was used for colocalization analysis and determination of the Pearson’s correlation coefficient. The primary

Row | Pearson's correlation coefficient R, colocalization with Congo Red [2] | SMILES | viability at 40 h [1] | toxicity towards SH-SY5Y cells (in words) (SH-SY5Y cells)
1 | – | COc1cc(/C=C/c2ccc(-c3ccc(N(C)C)cc3)s2)cc(CN2CCN(C)CCN(C)CC2)c1O [ZY-5-OMe] | > 80% | not toxic towards SH-SY5Y cells
2 | – | CN1CCN(C)CCN(Cc2cc(-c3ccc(/C=C/c4ccc(N(C)C)cc4)s3)ccc2O)CC1 [ZY-12-MT] | > 80% | not toxic towards SH-SY5Y cells
3 | – | CN1CCN(C)CCN(Cc2cc(/C=C/c3ccc(-c4ccc(C=O)cc4)s3)ccc2O)CC1 [ZY-15-MT] | > 80% | not toxic towards SH-SY5Y cells
4 | 0.77 | COc1cc(OC)cc(-c2ccc(/C=C/c3cc(CN4CCN(C)CCN(C)CC4)c(O)c(CN4CCN(C)CCN(C)CC4)c3)cc2)c1 [ZY-17-DT] | – | –
5 | 0.72 | COc1cc(OC)cc(-c2ccc(/C=C/c3cc(CN4CCN(C)CCN(C)CC4)c(O)c(OC)c3)cc2)c1 [ZY-17-OMe] | – | –

Row | SMILES | Pearson's correlation coefficient R, colocalization with Congo Red [2] | viability at 40 h [1] | toxicity towards SH-SY5Y cells (in words) (SH-SY5Y cells)
6 | COc1cc(/C=C/c2ccc(-c3ccc(C=O)cc3)s2)cc(CN2CCN(C)CCN(C)CC2)c1O [ZY-15-OMe] | 0.77 | > 80% | not toxic towards SH-SY5Y cells

From PMC9645390, “Amphiphilic stilbene derivatives attenuate the neurotoxicity of soluble Aβ42 oligomers by controlling their interactions with cell membranes” (Chemical Science, 2022)
